Results: ChEMBL document CHEMBL1145818, “Effect of detergent on "promiscuous" inhibitors” (J Med Chem, 2003)

Columns and labels:
[1] = molecular target: Chymotrypsinogen A (Bos taurus) (UniProt P00766); assay: Concentration required for the inhibition of Chymotrypsinogen
[2] = molecular target: T1, Dihydrofolate reductase (Homo sapiens) (UniProt P00374); assay: Concentration required for the inhibition of dihydrofolate reductase
T1 sequence (whole entry): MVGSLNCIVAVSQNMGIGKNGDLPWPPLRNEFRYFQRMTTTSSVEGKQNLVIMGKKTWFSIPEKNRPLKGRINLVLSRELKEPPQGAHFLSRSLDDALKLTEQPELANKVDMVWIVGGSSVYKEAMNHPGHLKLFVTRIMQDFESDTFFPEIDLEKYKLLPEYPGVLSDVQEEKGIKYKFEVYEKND

SMILES: Nc1c(/N=N/c2ccc(-c3ccc(/N=N/c4cc(S(=O)(=O)O)c5ccccc5c4N)cc3)cc2)cc(S(=O)(=O)O)c2ccccc12
- Concentration [1]: 40 µM
- Concentration [2]: 0.4 µM
